± gives the expanded uncertainty stated by the source.
Details: Liquid, Vibrating tube method

CCCCO [butan-1-ol]
Details	mass density [kg/m3]
293.15 K, 100 kPa	809.5 ± 0.5
293.15 K, 10000 kPa	816.4 ± 0.5
293.15 K, 20000 kPa	822.9 ± 0.5
293.15 K, 30000 kPa	828.9 ± 0.6
293.15 K, 40000 kPa	834.5 ± 0.6
293.15 K, 50000 kPa	839.8 ± 0.6
293.15 K, 60000 kPa	844.7 ± 0.7
293.15 K, 70000 kPa	849.6 ± 0.7
293.15 K, 80000 kPa	854.2 ± 0.7
293.15 K, 90000 kPa	858.5 ± 0.8
293.15 K, 100000 kPa	862.9 ± 0.8
293.15 K, 110000 kPa	866.7 ± 0.8
293.15 K, 120000 kPa	870.8 ± 0.9
293.15 K, 130000 kPa	874.4 ± 0.9
293.15 K, 140000 kPa	878.1 ± 1
303.15 K, 100 kPa	802 ± 0.5
303.15 K, 10000 kPa	809.4 ± 0.5
303.15 K, 20000 kPa	816 ± 0.6
303.15 K, 30000 kPa	822.3 ± 0.6
303.15 K, 40000 kPa	828 ± 0.6
303.15 K, 50000 kPa	833.6 ± 0.6
303.15 K, 60000 kPa	838.7 ± 0.7
303.15 K, 70000 kPa	843.6 ± 0.7
303.15 K, 80000 kPa	848.3 ± 0.7
303.15 K, 90000 kPa	852.7 ± 0.8
303.15 K, 100000 kPa	857 ± 0.8
303.15 K, 110000 kPa	861.2 ± 0.9
303.15 K, 120000 kPa	865 ± 0.9
303.15 K, 130000 kPa	868.9 ± 0.9
303.15 K, 140000 kPa	872.6 ± 1
313.15 K, 100 kPa	794.1 ± 0.5
313.15 K, 10000 kPa	801.6 ± 0.5
313.15 K, 20000 kPa	809.1 ± 0.6
313.15 K, 30000 kPa	815.4 ± 0.6
313.15 K, 40000 kPa	821.4 ± 0.6
313.15 K, 50000 kPa	827.2 ± 0.6
313.15 K, 60000 kPa	832.6 ± 0.7
313.15 K, 70000 kPa	837.8 ± 0.7
313.15 K, 80000 kPa	842.6 ± 0.8
313.15 K, 90000 kPa	847.3 ± 0.8
313.15 K, 100000 kPa	851.6 ± 0.8
313.15 K, 110000 kPa	856 ± 0.9
313.15 K, 120000 kPa	860.1 ± 0.9
313.15 K, 130000 kPa	864 ± 1
313.15 K, 140000 kPa	867.9 ± 1
323.15 K, 100 kPa	786.5 ± 0.5
323.15 K, 10000 kPa	794.5 ± 0.5
323.15 K, 20000 kPa	801.7 ± 0.6
323.15 K, 30000 kPa	808.5 ± 0.6
323.15 K, 40000 kPa	815 ± 0.6
323.15 K, 50000 kPa	821 ± 0.7
323.15 K, 60000 kPa	826.5 ± 0.7
323.15 K, 70000 kPa	831.5 ± 0.7
323.15 K, 80000 kPa	836.3 ± 0.8
323.15 K, 90000 kPa	841.1 ± 0.8
323.15 K, 100000 kPa	845.8 ± 0.9
323.15 K, 110000 kPa	850.1 ± 0.9
323.15 K, 120000 kPa	854.3 ± 0.9
323.15 K, 130000 kPa	858.3 ± 1
323.15 K, 140000 kPa	862.1 ± 1
333.15 K, 100 kPa	778.3 ± 0.5
333.15 K, 10000 kPa	786.8 ± 0.5
333.15 K, 20000 kPa	794.6 ± 0.6
333.15 K, 30000 kPa	801.7 ± 0.6
333.15 K, 40000 kPa	808.4 ± 0.6
333.15 K, 50000 kPa	814.6 ± 0.7
333.15 K, 60000 kPa	820.3 ± 0.7
333.15 K, 70000 kPa	825.6 ± 0.7
333.15 K, 80000 kPa	830.8 ± 0.8
333.15 K, 90000 kPa	836 ± 0.8
333.15 K, 100000 kPa	840.5 ± 0.9
333.15 K, 110000 kPa	844.9 ± 0.9
333.15 K, 120000 kPa	849 ± 1
333.15 K, 130000 kPa	853.2 ± 1
333.15 K, 140000 kPa	857 ± 1
343.15 K, 100 kPa	769.9 ± 0.5
343.15 K, 10000 kPa	779 ± 0.5
343.15 K, 20000 kPa	787.1 ± 0.6
343.15 K, 30000 kPa	794.4 ± 0.6
343.15 K, 40000 kPa	801.3 ± 0.6
343.15 K, 50000 kPa	807.8 ± 0.7
343.15 K, 60000 kPa	813.6 ± 0.7
343.15 K, 70000 kPa	819.3 ± 0.8
343.15 K, 80000 kPa	824.6 ± 0.8
343.15 K, 90000 kPa	829.5 ± 0.8
343.15 K, 100000 kPa	834.4 ± 0.9
343.15 K, 110000 kPa	838.9 ± 0.9
343.15 K, 120000 kPa	843.3 ± 1
343.15 K, 130000 kPa	847.5 ± 1
343.15 K, 140000 kPa	851.6 ± 1.1
353.15 K, 100 kPa	760.9 ± 0.5
353.15 K, 10000 kPa	770.6 ± 0.5
353.15 K, 20000 kPa	779.2 ± 0.6
353.15 K, 30000 kPa	787.1 ± 0.6
353.15 K, 40000 kPa	794.3 ± 0.6
353.15 K, 50000 kPa	800.9 ± 0.7
353.15 K, 60000 kPa	807.7 ± 0.7
353.15 K, 70000 kPa	813.2 ± 0.8
353.15 K, 80000 kPa	818.9 ± 0.8
353.15 K, 90000 kPa	823.9 ± 0.9
353.15 K, 100000 kPa	828.8 ± 0.9
353.15 K, 110000 kPa	833.5 ± 1
353.15 K, 120000 kPa	838.1 ± 1
353.15 K, 130000 kPa	842.1 ± 1.1
353.15 K, 140000 kPa	846.5 ± 1.1
363.15 K, 100 kPa	751.9 ± 0.5
363.15 K, 10000 kPa	762.6 ± 0.5
363.15 K, 20000 kPa	771.7 ± 0.6
363.15 K, 30000 kPa	780.1 ± 0.6
363.15 K, 40000 kPa	787.4 ± 0.7
363.15 K, 50000 kPa	794.3 ± 0.7
363.15 K, 60000 kPa	800.9 ± 0.7
363.15 K, 70000 kPa	807 ± 0.8
363.15 K, 80000 kPa	812.5 ± 0.8
363.15 K, 90000 kPa	817.9 ± 0.9
363.15 K, 100000 kPa	822.9 ± 0.9
363.15 K, 110000 kPa	827.7 ± 1
363.15 K, 120000 kPa	832.4 ± 1
363.15 K, 130000 kPa	836.8 ± 1.1
363.15 K, 140000 kPa	841 ± 1.1
373.15 K, 100 kPa	742.4 ± 0.5
373.15 K, 10000 kPa	753.4 ± 0.5
373.15 K, 20000 kPa	763.3 ± 0.6
373.15 K, 30000 kPa	772.2 ± 0.6
373.15 K, 40000 kPa	780 ± 0.7
373.15 K, 50000 kPa	787.2 ± 0.7
373.15 K, 60000 kPa	793.8 ± 0.8
373.15 K, 70000 kPa	800.2 ± 0.8
373.15 K, 80000 kPa	805.8 ± 0.9
373.15 K, 90000 kPa	811.5 ± 0.9
373.15 K, 100000 kPa	817 ± 1
373.15 K, 110000 kPa	821.9 ± 1
373.15 K, 120000 kPa	826.3 ± 1.1
373.15 K, 130000 kPa	831 ± 1.1
373.15 K, 140000 kPa	835.3 ± 1.2
383.15 K, 100 kPa	732.2 ± 0.5
383.15 K, 10000 kPa	744.7 ± 0.5
383.15 K, 20000 kPa	754.6 ± 0.6
383.15 K, 30000 kPa	764.3 ± 0.6
383.15 K, 40000 kPa	772.2 ± 0.7
383.15 K, 50000 kPa	779.6 ± 0.7
383.15 K, 60000 kPa	786.6 ± 0.8
383.15 K, 70000 kPa	793.2 ± 0.8
383.15 K, 80000 kPa	799.1 ± 0.9
383.15 K, 90000 kPa	804.9 ± 0.9
383.15 K, 100000 kPa	810.3 ± 1
383.15 K, 110000 kPa	815.4 ± 1
383.15 K, 120000 kPa	820.4 ± 1.1
383.15 K, 130000 kPa	825 ± 1.1
383.15 K, 140000 kPa	829.6 ± 1.2
393.15 K, 10000 kPa	735.3 ± 0.6
393.15 K, 20000 kPa	746.4 ± 0.6
393.15 K, 30000 kPa	755.9 ± 0.6
393.15 K, 40000 kPa	764.9 ± 0.7
393.15 K, 50000 kPa	772.3 ± 0.7
393.15 K, 60000 kPa	779.6 ± 0.8
393.15 K, 70000 kPa	786.3 ± 0.8
393.15 K, 80000 kPa	792.8 ± 0.9
393.15 K, 90000 kPa	798.8 ± 0.9
393.15 K, 100000 kPa	804.3 ± 1
393.15 K, 110000 kPa	809.7 ± 1.1
393.15 K, 120000 kPa	814.7 ± 1.1
393.15 K, 130000 kPa	819.3 ± 1.2
393.15 K, 140000 kPa	823.9 ± 1.3
403.15 K, 10000 kPa	725.6 ± 0.6
403.15 K, 20000 kPa	737.3 ± 0.6
403.15 K, 30000 kPa	747.7 ± 0.6
403.15 K, 40000 kPa	756.9 ± 0.7
403.15 K, 50000 kPa	765.4 ± 0.7
403.15 K, 60000 kPa	772.8 ± 0.8
403.15 K, 70000 kPa	779.9 ± 0.9
403.15 K, 80000 kPa	786.5 ± 0.9
403.15 K, 90000 kPa	792.6 ± 1
403.15 K, 100000 kPa	798.5 ± 1
403.15 K, 110000 kPa	803.9 ± 1.1
403.15 K, 120000 kPa	809.1 ± 1.1
403.15 K, 130000 kPa	814.1 ± 1.2
403.15 K, 140000 kPa	819.3 ± 1.3

From the NIST ThermoML archive (doi:10.1016/j.fluid.2010.11.020)
